Measured values as given in patent publication US10882843B2, “5-aminopyrazole carboxamide derivative as BTK inhibitor and preparation method and pharmaceutical composition thereof” (SUZHOU SINOVENT PHARMACEUTICALS CO., LTD., priority 2016, dated 2021).

Key:
SRC = SRC (Homo sapiens, UniProt P12931); assay: In vitro kinase selectivity assay, SRC (Z'-Lyte); type: biochemical; details: read-out: SRC kinase inhibitory activity grade
Description: (§1) The assay platform for EGFR and ITK kinase activities was established using time-resolved fluorescence resonance energy transfer-based method; the assay platform for LCK, SRC and LYN kinase activities was established using Z′-Lyte method; and the assay platform for TEC and JAK3 kinase activities was established using Lance Ultra method. The inhibitory effects of the compounds disclosed herein on different kinase activities were tested separately for each compound at 11 concentrations. The IC50 value of each compound was calculated using Graphpad Prism software.

LCK = LCK (Homo sapiens, UniProt P06239); assay: In vitro kinase selectivity assay, LCK (Z'-Lyte); type: biochemical; details: read-out: LCK kinase inhibitory activity grade
Chain of LCK (P06239 whole entry, species assumed): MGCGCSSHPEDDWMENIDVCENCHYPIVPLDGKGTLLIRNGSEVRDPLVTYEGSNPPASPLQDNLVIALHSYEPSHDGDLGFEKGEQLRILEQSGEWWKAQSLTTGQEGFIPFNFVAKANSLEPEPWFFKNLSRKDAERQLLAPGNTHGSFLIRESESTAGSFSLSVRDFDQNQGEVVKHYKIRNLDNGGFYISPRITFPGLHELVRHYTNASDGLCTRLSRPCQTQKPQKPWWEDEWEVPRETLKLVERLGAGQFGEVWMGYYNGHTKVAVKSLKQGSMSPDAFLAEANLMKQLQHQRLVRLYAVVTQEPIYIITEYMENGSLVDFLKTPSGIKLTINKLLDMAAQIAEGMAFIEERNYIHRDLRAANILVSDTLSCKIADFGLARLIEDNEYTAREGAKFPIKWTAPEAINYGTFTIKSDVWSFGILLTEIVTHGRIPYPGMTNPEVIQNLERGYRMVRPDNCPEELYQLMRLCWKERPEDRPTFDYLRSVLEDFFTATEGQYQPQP
Description: as §1

EGFR = EGFR (Homo sapiens, UniProt P00533); assay: In vitro kinase selectivity assay, EGFR (TR-FRET); type: biochemical; details: read-out: EGFR kinase inhibitory activity grade
Chain of EGFR (P00533 25-1210): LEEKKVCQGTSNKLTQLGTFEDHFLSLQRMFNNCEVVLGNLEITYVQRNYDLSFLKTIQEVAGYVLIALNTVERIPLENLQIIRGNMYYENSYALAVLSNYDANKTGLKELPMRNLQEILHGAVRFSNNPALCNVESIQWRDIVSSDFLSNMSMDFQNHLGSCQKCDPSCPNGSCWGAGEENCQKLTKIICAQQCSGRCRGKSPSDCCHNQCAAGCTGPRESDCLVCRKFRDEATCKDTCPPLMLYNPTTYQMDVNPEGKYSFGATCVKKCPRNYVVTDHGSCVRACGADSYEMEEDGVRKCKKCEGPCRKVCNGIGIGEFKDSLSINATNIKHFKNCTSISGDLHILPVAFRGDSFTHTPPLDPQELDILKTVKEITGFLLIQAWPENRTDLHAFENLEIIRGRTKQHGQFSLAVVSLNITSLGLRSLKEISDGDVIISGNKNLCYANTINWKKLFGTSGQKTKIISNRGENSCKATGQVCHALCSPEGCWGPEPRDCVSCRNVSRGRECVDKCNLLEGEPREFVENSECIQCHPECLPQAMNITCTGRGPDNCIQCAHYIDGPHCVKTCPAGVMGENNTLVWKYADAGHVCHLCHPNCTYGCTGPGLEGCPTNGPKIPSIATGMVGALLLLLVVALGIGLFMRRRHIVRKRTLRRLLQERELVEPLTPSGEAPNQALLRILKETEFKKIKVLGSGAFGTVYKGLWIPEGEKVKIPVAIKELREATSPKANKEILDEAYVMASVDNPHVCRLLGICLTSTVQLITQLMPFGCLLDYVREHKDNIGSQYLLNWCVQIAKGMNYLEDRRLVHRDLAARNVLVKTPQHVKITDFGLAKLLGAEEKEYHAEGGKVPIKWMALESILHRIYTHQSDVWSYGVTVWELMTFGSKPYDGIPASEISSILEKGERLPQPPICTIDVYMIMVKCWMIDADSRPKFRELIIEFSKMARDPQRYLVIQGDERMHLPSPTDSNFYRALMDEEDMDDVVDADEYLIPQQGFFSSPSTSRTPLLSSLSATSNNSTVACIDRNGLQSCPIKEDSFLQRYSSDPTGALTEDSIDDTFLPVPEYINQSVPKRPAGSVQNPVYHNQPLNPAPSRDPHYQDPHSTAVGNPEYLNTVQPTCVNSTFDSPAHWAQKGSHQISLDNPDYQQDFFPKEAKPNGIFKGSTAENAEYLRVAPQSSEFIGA
Description: as §1

LYN = LYN (Homo sapiens, UniProt P07948); assay: In vitro kinase selectivity assay, LYN (Z'-Lyte); type: biochemical; details: read-out: LYN kinase inhibitory activity grade
Chain of LYN (P07948 whole entry, species assumed): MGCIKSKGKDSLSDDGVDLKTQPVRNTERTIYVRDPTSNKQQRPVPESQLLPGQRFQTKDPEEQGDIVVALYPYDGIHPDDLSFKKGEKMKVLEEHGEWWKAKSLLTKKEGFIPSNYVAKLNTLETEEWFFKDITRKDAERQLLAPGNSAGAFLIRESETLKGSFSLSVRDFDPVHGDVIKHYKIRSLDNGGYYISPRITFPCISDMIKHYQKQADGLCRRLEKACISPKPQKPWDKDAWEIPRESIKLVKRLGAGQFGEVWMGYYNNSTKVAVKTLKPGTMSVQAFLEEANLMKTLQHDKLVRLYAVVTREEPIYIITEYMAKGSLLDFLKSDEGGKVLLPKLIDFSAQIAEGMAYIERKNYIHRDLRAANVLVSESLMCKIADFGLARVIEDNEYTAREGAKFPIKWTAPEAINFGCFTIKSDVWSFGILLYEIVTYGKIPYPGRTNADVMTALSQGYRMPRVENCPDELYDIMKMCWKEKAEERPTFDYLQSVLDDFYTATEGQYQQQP
Description: as §1

Recombinant Btk = Recombinant Btk (Homo sapiens, UniProt Q06187); assay: Kinase activity (BTK) inhibition assay, TR-FRET; type: biochemical; details: read-out: BTK kinase inhibitory activity grade (A/B/C)
Chain of Recombinant Btk (Q06187 whole entry): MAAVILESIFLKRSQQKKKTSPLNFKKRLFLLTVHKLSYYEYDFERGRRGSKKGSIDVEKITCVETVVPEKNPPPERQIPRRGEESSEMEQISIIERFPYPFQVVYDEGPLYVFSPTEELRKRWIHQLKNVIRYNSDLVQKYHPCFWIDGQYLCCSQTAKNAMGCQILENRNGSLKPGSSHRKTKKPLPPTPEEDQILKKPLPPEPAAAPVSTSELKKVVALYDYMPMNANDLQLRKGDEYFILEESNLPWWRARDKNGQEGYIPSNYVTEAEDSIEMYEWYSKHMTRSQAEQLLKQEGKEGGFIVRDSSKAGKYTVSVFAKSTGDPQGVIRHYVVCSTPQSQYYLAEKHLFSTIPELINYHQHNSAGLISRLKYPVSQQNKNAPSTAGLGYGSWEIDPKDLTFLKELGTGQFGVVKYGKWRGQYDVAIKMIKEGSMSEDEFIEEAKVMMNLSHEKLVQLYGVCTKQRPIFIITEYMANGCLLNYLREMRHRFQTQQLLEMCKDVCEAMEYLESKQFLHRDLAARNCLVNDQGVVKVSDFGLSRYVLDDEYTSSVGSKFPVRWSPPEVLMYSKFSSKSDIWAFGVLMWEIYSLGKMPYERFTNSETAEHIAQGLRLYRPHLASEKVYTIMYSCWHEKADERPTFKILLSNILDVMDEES
Description: Kinase Activity (BTK) Inhibition Assay
The inhibitory effects of the compounds disclosed herein on BTK kinase activity were tested in an assay based on a time resolved fluorescence resonance energy transfer (TR-FRET) method. Recombinant Btk was pre-incubated with the compound disclosed herein in an assay buffer containing 50 mM. Tris pH 7.4, 10 mM MgCl2, 2 mM MnCl2, 0.1 mM EDTA, 1 mM DTT, 20 nM SEB, 0.1% BSA, 0.005% tween-20 at room temperature for 1 hour. The reaction was initiated by the addition of ATP (at the ATP Km concentration) and the peptide substrate (Biotin-[…]-NH2). After incubation for 1 hour at room temperature, an equal volume of stop solution containing 50 mM HEPES pH 7.0, 800 mM KF, 20 mM EDTA, 0.1% BSA, p-Tyr66 antibody linked with Eu cryptate and streptavidin-labeled XL665 was added to stop the reaction. The plate was incubated for an additional hour at room temperature and then the TR-FRET signal was read on a BMG PHERAstar FS instrument (ex337 nm, em 620 nm/665 nm). Based on the ratio of the signal of fluorescence at […] to 665 nm, the enzyme activity was calculated with an increased compound concentration. IC50 of each compound was obtained by fitting the data to the four-parameter equation of Graphpad Prism software.

[1] = tested on: diffuse large B-cell lymphoma cell line TMD-8; assay: Pharmacodynamic assay, TMD-8 xenograft in NOD.SCID mice; type: in vivo; details: p.o. daily for 21 days
Description: Severe immunodeficiency NOD.SCID mice were purchased from Beijing Vital River Laboratory Animal Technology Co., Ltd., and were housed in SPF grade animal room. After TMD-8 cells were cultured to the sufficient amount, the cells were collected by centrifugation and washed twice with PBS. Finally, the cells were resuspended in serum-free RPMI 1640 medium plus Matrigel (1:1 v/v). 0.2 ml of cell suspension was injected subcutaneously on the right flank of each mouse using 1 ml syringe and 25 G syringe needle. The tumor size was measured with a caliper after about one week post injection. The tumor volume was calculated according to the following formula: tumor volume=(length×width^2)/2. When the tumor volume reached about 100-200 mm^3, the mice were grouped and p.o. administered daily for 21 days.

TEC = biological target: T1, TEC (Homo sapiens, UniProt P42680); assay: In vitro kinase selectivity assay, TEC (Lance Ultra); type: biochemical; details: read-out: TEC kinase inhibitory activity grade
T1 sequence (P42680 1-631): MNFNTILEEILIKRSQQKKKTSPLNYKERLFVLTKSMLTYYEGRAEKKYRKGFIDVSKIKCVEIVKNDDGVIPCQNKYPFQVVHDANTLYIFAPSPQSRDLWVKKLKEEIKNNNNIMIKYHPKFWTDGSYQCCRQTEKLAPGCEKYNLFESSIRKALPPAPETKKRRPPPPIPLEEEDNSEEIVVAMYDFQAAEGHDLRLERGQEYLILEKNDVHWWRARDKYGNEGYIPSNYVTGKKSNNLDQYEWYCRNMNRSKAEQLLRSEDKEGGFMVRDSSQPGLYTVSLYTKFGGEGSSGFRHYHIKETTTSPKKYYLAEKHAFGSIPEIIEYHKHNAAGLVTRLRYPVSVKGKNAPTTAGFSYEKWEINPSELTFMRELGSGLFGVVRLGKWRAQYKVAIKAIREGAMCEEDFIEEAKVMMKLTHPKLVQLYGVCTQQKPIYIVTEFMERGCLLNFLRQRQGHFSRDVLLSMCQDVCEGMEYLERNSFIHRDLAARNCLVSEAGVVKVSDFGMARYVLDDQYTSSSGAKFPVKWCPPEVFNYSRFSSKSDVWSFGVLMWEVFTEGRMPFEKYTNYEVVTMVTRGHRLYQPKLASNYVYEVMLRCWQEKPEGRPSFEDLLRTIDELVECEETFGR
Description: as §1

ITK = biological target: T2, ITK (Homo sapiens, UniProt Q08881); assay: In vitro kinase selectivity assay, ITK (TR-FRET); type: biochemical; details: read-out: ITK kinase inhibitory activity grade
T2 sequence (Q08881 1-620): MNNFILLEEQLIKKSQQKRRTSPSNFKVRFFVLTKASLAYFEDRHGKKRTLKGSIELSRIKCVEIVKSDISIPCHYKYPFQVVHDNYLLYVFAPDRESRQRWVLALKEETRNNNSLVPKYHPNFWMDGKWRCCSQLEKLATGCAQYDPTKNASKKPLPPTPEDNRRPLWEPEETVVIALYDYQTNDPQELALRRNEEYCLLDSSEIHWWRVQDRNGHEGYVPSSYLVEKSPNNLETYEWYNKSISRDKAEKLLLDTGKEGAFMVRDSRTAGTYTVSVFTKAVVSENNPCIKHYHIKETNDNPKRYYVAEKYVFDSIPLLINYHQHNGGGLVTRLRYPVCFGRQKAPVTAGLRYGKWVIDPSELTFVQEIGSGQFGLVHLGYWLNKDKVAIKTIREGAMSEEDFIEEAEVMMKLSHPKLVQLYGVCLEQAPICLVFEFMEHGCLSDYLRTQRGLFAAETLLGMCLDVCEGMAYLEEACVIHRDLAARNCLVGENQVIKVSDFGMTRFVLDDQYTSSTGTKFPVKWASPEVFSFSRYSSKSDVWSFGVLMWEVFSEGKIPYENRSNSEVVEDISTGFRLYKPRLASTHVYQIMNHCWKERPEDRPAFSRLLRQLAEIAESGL
Description: as §1

Chain of SRC (P12931 whole entry, species assumed): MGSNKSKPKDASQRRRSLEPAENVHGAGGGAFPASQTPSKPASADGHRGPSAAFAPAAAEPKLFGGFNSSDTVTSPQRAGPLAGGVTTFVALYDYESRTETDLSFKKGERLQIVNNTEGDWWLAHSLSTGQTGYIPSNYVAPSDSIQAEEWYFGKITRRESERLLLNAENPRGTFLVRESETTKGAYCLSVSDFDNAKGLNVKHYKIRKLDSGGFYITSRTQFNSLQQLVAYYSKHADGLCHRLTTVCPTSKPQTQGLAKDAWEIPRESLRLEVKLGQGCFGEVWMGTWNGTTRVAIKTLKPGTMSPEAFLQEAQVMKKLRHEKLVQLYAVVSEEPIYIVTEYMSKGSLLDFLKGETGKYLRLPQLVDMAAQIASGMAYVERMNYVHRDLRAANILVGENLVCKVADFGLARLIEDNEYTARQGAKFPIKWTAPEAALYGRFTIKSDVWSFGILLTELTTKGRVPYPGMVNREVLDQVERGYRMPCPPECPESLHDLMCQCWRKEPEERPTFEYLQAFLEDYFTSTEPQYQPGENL

SMILES	IC50 (SRC) [nM]	IC50 (LCK) [nM]	IC50 (EGFR) [nM]	IC50 (LYN) [nM]	IC50 (Recombinant Btk) [nM]	growth of TMD-8 tumor in vivo [1]	IC50 (TEC) [nM]	IC50 (ITK) [nM]
N#CN1C[C@H](n2nc(-c3ccc(Oc4ccc(F)cc4F)cc3)c(C(N)=O)c2N)CCC12CC2 [WS-411, (R)-5-amino-1-(4-cyano-4-azaspiro[2.5]oct-6-yl)-3-(4-(2,4-difluorophenoxy)phenyl)-1H-pyrazole-4-carboxamide]	> 1000	100 to 1000	> 1000	100 to 1000	< 100	significantly inhibited the growth	< 100	> 1000
N#CN1C[C@H](n2nc(-c3ccc(Oc4ccc(Cl)cn4)cc3)c(C(N)=O)c2N)CCC12CC2 [WS-413, (R)-5-amino-3-(4-((5-chloropyridin-2-yl)oxy)phenyl)-1-(4-cyano-4-azaspiro[2.5]oct-6-yl)-1H-pyrazole-4-carboxamide]	> 1000	> 1000	100 to 1000	> 1000	< 100	significantly inhibited the growth	< 100	> 1000
CC#CC(=O)N1C[C@H](n2nc(-c3ccc(Oc4ccc(Cl)cn4)cc3)c(C(N)=O)c2N)CCC12CC2 [WS-416, (R)-5-amino-1-(4-(2-butynoyl)-4-azaspiro[2.5]oct-6-yl)-3-(4-((5-chloropyridin-2-yl)oxy)phenyl)-1H-pyrazole-4-carboxamide]	> 1000	> 1000	> 1000	> 1000	< 100	significantly inhibited the growth	< 100	> 1000
